{"source": "patent US20210259954A1", "about": "“CILIA-TARGETING NANOPARTICLES” (Chapman University, priority 2019, published 2021)", "key": {"[1]": {"system": "Tie2Cre⋅Pkd2^flox/flox mice", "assay": "Endothelial-specific Pkd2 mouse model, 8-week treatment (Example 2)", "assay_type": "in vivo", "procedure": "Mouse models. All mouse experiments were performed by two operators who were blinded to the experimental conditions. All animal procedures were performed according to the University of California Irvine and Chapman University Animal Care and Use Committee Guidelines. One-week-old Tie2Cre⋅Pkd2^WT/WT (with Cre activation; control group), Tie2Cre⋅Pkd2^flox/flox (without Cre activation; control group) or Tie2Cre⋅Pkd2^flox/flox (with Cre activation; experimental group) mice were intraperitoneally injected with 250 μg of tamoxifen in a 50-μL volume daily for five consecutive days. A limited number of IFT88 mice was also used as a cilia-less model in this study. […] On the other hand, fenoldopam-alone (1 μg/kg/min) was perfused for 30 minutes every 72 hours for 8 weeks. […] Five minutes after the CT-Fe2O3-NP injection, a 1.35-T AlNiCo cylindrical magnet (VWR International) was placed at the posterior and anterior regions of the mouse for 10 minutes daily.\nMouse blood pressure measurements. […] Blood pressure was measured twice daily for the duration of the study after the initial three days of acclimating each mouse to the cuff. All measurements were performed by operators in a double-blind. At the end of the 12-week treatment, the haematology results including the BUN and plasma nitrate/nitrite measurements were examined. BUN assays were conducted using an Arbor Assays calorimetric Detection Kit. Plasma nitrate/nitrite concentrations were quantified using a Cayman nitrate/nitrite assay kit. All steps were performed according to the manufacturers' instructions.\nH&E and Masson's trichrome staining. Sections of the zebrafish (whole body) and major mouse organs, including the hearts, kidneys, livers, spleens and lungs, were collected and subjected to H&E staining for zebrafish cysts and histopathology by fixation in 10% formalin. Then, the tissues were dehydrated in buffered formalin, ethanol, and xylene. Finally, the tissues were embedded in liquid paraffin, sectioned (4 μm), and stained with H&E for histological examinations. The pathology slices were observed and imaged using a KEYENCE-BZ-X710 microscope. Mouse heart sections were stained with Masson's trichrome to detect fibrosis using a Masson's Trichrome Stain Kit (Polysciences)."}, "primary cilia": {"system": "primary cilia", "assay": "In vitro cilia length, immunocytochemistry (Example 2)", "assay_type": "cell-based, porcine", "details": "16 h of treatment", "procedure": "Immunocytochemistry and confocal microscopy. For the in vitro cilia length measurements, cells were grown on the Formvar® polymer, as mentioned above. […] Fenoldopam-alone was also used as another control. […] An antibody against acetylated-α-tubulin (1:10,000 dilution, Sigma-Aldrich) and the secondary antibodies were also diluted in 10% FBS to decrease the background florescence; a FITC-conjugated secondary antibody (1:1000; Pierce) was used. Cells were then washed three times for 5 minutes each with cacodylate buffer and sealed with mounting media containing DAPI (Vector Laboratories). […] Images were processed using NIS-Elements High Content AR 4.30.02 (Nikon). Automated image acquisition (ND acquisition) was conducted under the same ×60 magnification (selected area capturing option) field and Z-stack (0.1 μm slices) settings to create a 3D video. All imaging and video acquisition times and the microscope stage were automatically controlled (XY, XZ and YZ) by an automated perfect focusing system (PFS). The in vivo cilia length measurements and NP localizations in the zebrafish and mouse tissues were performed using the same method."}, "[2]": {"system": "Tie2Cre⋅Pkd2^flox/flox mice", "assay": "Endothelia-specific Pkd2 knockout hypertensive mouse model, 8-week treatment (Example 1)", "assay_type": "in vivo", "procedure": "One-week-old Tie2Cre⋅Pkd2^WT/WT (with cre activation; control group) or Tie2Cre⋅Pkd2^flox/flox (without cre activation; control group), and Tie2Cre⋅Pkd2^flox/flox (with cre activation; experimental group) mice were injected intra-peritoneally with 5 μg/μL tamoxifen every day for five consecutive days. […] The overall process for the preparation of the final nano-formulation for the animal studies included the following steps. The lyophilized antibody conjugated and drug-loaded CT-DAu-NPs or CT-PLGA-NP powders were first brought to the room temperature from a storage at −50° C. […] The formulations were mixed by vortex for 2 minutes followed by filtration of 0.2 μm. […] The mice were treated every 72 hours with different NPs for 8 weeks. Blood pressure from four-week-old mice was taken with the non-invasive tail-cuff method using the CODA system (Kent Scientific). Blood pressure was measured twice daily for the duration of the study after the initial three days of acclimating each mouse to the cuff. At the end of the 12 weeks of treatment, the hematology parameters, including the blood urea nitrogen (BUN) and plasma nitrate/nitrite measurements, were examined. BUN assays were conducted using a calorimetric kit (Arbor Assays). Plasma nitrate/nitrite concentrations were quantified using a nitrate/nitrite assay kit (Cayman). All steps were followed according to the manufacturer's instructions. […] Then, the tissues were dehydrated using buffered ethanol, and xylene. Finally, the tissues were embedded in wax, sectioned (4 μm, Microtome, HM-3555, Thermo Scientific) and were subsequently stained with standard hematoxylin and eosin (H&E). The pathology slices were observed and imaged using a KEYENCE-BZ-X710 microscope. Mouse heart sections were stained with Masson's Trichrome to detect fibrosis using a Masson's Trichrome Stain Kit (Polysciences, Inc.)."}, "[3]": {"system": "Tie2Cre⋅Pkd2^flox/flox mice", "assay": "Working heart perfusion system, hearts of treated Pkd2 mice (Example 1)", "assay_type": "in vivo, mouse", "details": "for CO, cardiac output / EDPVR, end-diastolic pressure volume relation / EF, ejection fraction / ESPVR, end-systolic pressure volume relation / HR, heart rate / LV EDP, end-diastolic pressure / LV EDV, end-diastolic volume / LV ESP, end-systolic pressure / LV ESV, end-systolic volume / LV Pmax, systolic pressure / SV, stroke volume / SW, stroke work / dP/dtmax, maximum rate of LV pressure rise / dP/dtmin, maximum rate of LV pressure fall: Pkd2 heart", "experimental": "One-week-old Tie2Cre⋅Pkd2^WT/WT (with cre activation; control group) or Tie2Cre⋅Pkd2^flox/flox (without cre activation; control group), and Tie2Cre⋅Pkd2^flox/flox (with cre activation; experimental group) mice were injected intra-peritoneally with 5 μg/μL tamoxifen every day for five consecutive days. […] The mice were next injected with PBS (control), CT-DAu-NPs or CT-PLGA-NPs (0.5 to 2.0 mg/kg body weight) via intravenous (IV) injections. […] The mice were treated every 72 hours with different NPs for 8 weeks.\nWorking Heart Perfusion System. To study heart function independently from neuronal innervation or humoral effect, ex vivo heart parameters were collected using a mouse working heart system from Emka Technologies. This system collected data of the cardiac contractile strength, electrical heart propagation (ECG; electrocardiogram) and other cardiac functions, including the heart rate (HR), left ventricle pressure (LVP), left ventricular volume (LVV), left atrial pressure (LAP), aortic out flow (AOF), stroke volume (SV), cardiac output (CO), end diastolic/systolic volume (Edv-Esv), rate of left atrial pressure raise (+dp/dt) and fall (−dt/dt), preload, afterload, and main aortic pressure. Heparin (100 units, IP), xylazine (10-15 mg/kg, IP), and ketamine (200-350 mg/kg, IP) were used to prevent blood coagulation in the coronary arteries and to anesthetize the mice. After cannulation, the heart was perfused with Krebs-Ringer superfusion solution (in mM: 125 NaCl, 2.5 KCl, 1.25 NaH2PO4, 2 CaCl2, 1 MgCl2, 25 NHCO3 and 25 glucose). Throughout the experiment, the solution was continuously bubbled with carbogen (95% O2 and 5% CO2) to reach 7.4 pH at 38° C. Stress tests were performed in the heart by perfusing epinephrine (4 μg/L) or diltiazem (0.08 μg/L). The cardiac function was plotted in a loop diagram showing the LVV-LVP relationship (volume-pressure loop)."}}}
{"smiles": "Oc1ccc(C2CNCCc3c2cc(O)c(O)c3Cl)cc1", "note": "(stereo not shown) [Fenoldopam, fenoldopam]", "values": [{"measurement": "acute blood pressure and heart rate", "setting": "[1]; 60 minutes after infusion", "result": "immediate decrease in blood pressure, followed by reflex tachycardia"}, {"measurement": "blood pressure (SBP, MAP)", "setting": "[1]; Pkd2 mice, every 72 hours for 8 weeks", "result": "did not result in an overall decrease in systemic blood pressure"}, {"measurement": "mortality", "setting": "[1]; Pkd2 mice, repeated infusions for 8 weeks", "result": 40, "unit": "%"}, {"measurement": "duration of blood pressure decrease", "setting": "[1]; after infusion", "result": "approximately one"}, {"measurement": "cilia length", "setting": "[1]; continuous infusion for 5 days", "result": "increased the cilia length"}, {"measurement": "cilia length", "setting": "primary cilia", "result": "increased the cilia length"}, {"measurement": "cilia length in aorta and heart", "setting": "[2]; 24 or 72 hours after treatment", "result": "increased by CTNDDS but not fenoldopam"}, {"measurement": "blood urea nitrogen (BUN)", "setting": "[2]; Pkd2 mice", "result": "could not be corrected"}, {"measurement": "plasma nitrate/nitrite", "setting": "[2]; Pkd2 mice", "result": "could not be corrected"}, {"measurement": "acute blood pressure and heart rate", "setting": "[2]; Pkd2 mice, 10-minute infusion", "result": "significantly decreased blood pressure followed by reflex tachycardia"}, {"measurement": "blood pressure (SBP, MAP)", "setting": "[2]; hypertensive Pkd2 mice, every 3 days for 8 weeks", "result": "no long-term effect"}, {"measurement": "CO, cardiac output", "setting": "[3]; diltiazem stress", "result": "1873 ± 70", "unit": "µL/min"}, {"measurement": "EDPVR, end-diastolic pressure volume relation", "setting": "[3]; diltiazem stress", "result": "0.14 ± 0.01", "unit": "mmHg/μL"}, {"measurement": "EF, ejection fraction", "setting": "[3]; diltiazem stress", "result": "51.6 ± 1.4", "unit": "%"}, {"measurement": "ESPVR, end-systolic pressure volume relation", "setting": "[3]; diltiazem stress", "result": "2.3 ± 0.1", "unit": "mmHg/μL"}, {"measurement": "HR, heart rate", "setting": "[3]; diltiazem stress", "result": "98 ± 9", "unit": "beat/min"}, {"measurement": "LV EDP, end-diastolic pressure", "setting": "[3]; diltiazem stress", "result": "5.7 ± 0.2", "unit": "mmHg"}, {"measurement": "LV EDV, end-diastolic volume", "setting": "[3]; diltiazem stress", "result": "40.3 ± 0.8", "unit": "µL"}, {"measurement": "LV ESP, end-systolic pressure", "setting": "[3]; diltiazem stress", "result": "33.5 ± 0.5", "unit": "mmHg"}, {"measurement": "LV ESV, end-systolic volume", "setting": "[3]; diltiazem stress", "result": "19.5 ± 0.6", "unit": "µL"}, {"measurement": "LV Pmax, systolic pressure", "setting": "[3]; diltiazem stress", "result": "44.7 ± 0.7", "unit": "mmHg"}, {"measurement": "SV, stroke volume", "setting": "[3]; diltiazem stress", "result": "20.8 ± 0.8", "unit": "µL"}, {"measurement": "SW, stroke work", "setting": "[3]; diltiazem stress", "result": "812 ± 29", "unit": "mmHg · μL"}, {"measurement": "dP/dtmax, maximum rate of LV pressure rise", "setting": "[3]; diltiazem stress", "result": "4020 ± 643", "unit": "mmHg/s"}, {"measurement": "dP/dtmin, maximum rate of LV pressure fall", "setting": "[3]; diltiazem stress", "result": "−1537 ± 97", "unit": "mmHg/s"}, {"measurement": "CO, cardiac output", "setting": "[3]; epinephrine stress", "result": "6810 ± 347", "unit": "µL/min"}, {"measurement": "EDPVR, end-diastolic pressure volume relation", "setting": "[3]; epinephrine stress", "result": "0.16 ± 0.01", "unit": "mmHg/μL"}, {"measurement": "EF, ejection fraction", "setting": "[3]; epinephrine stress", "result": "77.7 ± 2.0", "unit": "%"}, {"measurement": "ESPVR, end-systolic pressure volume relation", "setting": "[3]; epinephrine stress", "result": "9.7 ± 0.9", "unit": "mmHg/μL"}, {"measurement": "HR, heart rate", "setting": "[3]; epinephrine stress", "result": "219 ± 44", "unit": "beat/min"}, {"measurement": "LV EDP, end-diastolic pressure", "setting": "[3]; epinephrine stress", "result": "6.4 ± 0.5", "unit": "mmHg"}, {"measurement": "LV EDV, end-diastolic volume", "setting": "[3]; epinephrine stress", "result": "39.9 ± 0.1", "unit": "µL"}, {"measurement": "LV ESP, end-systolic pressure", "setting": "[3]; epinephrine stress", "result": "63.2 ± 0.3", "unit": "mmHg"}, {"measurement": "LV ESV, end-systolic volume", "setting": "[3]; epinephrine stress", "result": "8.9 ± 0.8", "unit": "µL"}, {"measurement": "LV Pmax, systolic pressure", "setting": "[3]; epinephrine stress", "result": "84.3 ± 0.4", "unit": "mmHg"}, {"measurement": "SV, stroke volume", "setting": "[3]; epinephrine stress", "result": "31.1 ± 0.7", "unit": "µL"}, {"measurement": "SW, stroke work", "setting": "[3]; epinephrine stress", "result": "2417 ± 28", "unit": "mmHg · μL"}, {"measurement": "dP/dtmax, maximum rate of LV pressure rise", "setting": "[3]; epinephrine stress", "result": "16864 ± 85", "unit": "mmHg/s"}, {"measurement": "dP/dtmin, maximum rate of LV pressure fall", "setting": "[3]; epinephrine stress", "result": "−3843 ± 277", "unit": "mmHg/s"}, {"measurement": "CO, cardiac output", "setting": "[3]; vehicle", "result": "3486 ± 81", "unit": "µL/min"}, {"measurement": "EDPVR, end-diastolic pressure volume relation", "setting": "[3]; vehicle", "result": "0.13 ± 0.01", "unit": "mmHg/μL"}, {"measurement": "EF, ejection fraction", "setting": "[3]; vehicle", "result": "62.5 ± 0.2", "unit": "%"}, {"measurement": "ESPVR, end-systolic pressure volume relation", "setting": "[3]; vehicle", "result": "4.4 ± 0.1", "unit": "mmHg/μL"}, {"measurement": "HR, heart rate", "setting": "[3]; vehicle", "result": "140 ± 24", "unit": "beat/min"}, {"measurement": "LV EDP, end-diastolic pressure", "setting": "[3]; vehicle", "result": "5.0 ± 0.1", "unit": "mmHg"}, {"measurement": "LV EDV, end-diastolic volume", "setting": "[3]; vehicle", "result": "40.0 ± 0.1", "unit": "µL"}, {"measurement": "LV ESP, end-systolic pressure", "setting": "[3]; vehicle", "result": "49.7 ± 1.5", "unit": "mmHg"}, {"measurement": "LV ESV, end-systolic volume", "setting": "[3]; vehicle", "result": "15.0 ± 0.1", "unit": "µL"}, {"measurement": "LV Pmax, systolic pressure", "setting": "[3]; vehicle", "result": "66.3 ± 2.0", "unit": "mmHg"}, {"measurement": "SV, stroke volume", "setting": "[3]; vehicle", "result": "24.9 ± 0.1", "unit": "µL"}, {"measurement": "SW, stroke work", "setting": "[3]; vehicle", "result": "1530 ± 20", "unit": "mmHg · μL"}, {"measurement": "dP/dtmax, maximum rate of LV pressure rise", "setting": "[3]; vehicle", "result": "7157 ± 211", "unit": "mmHg/s"}, {"measurement": "dP/dtmin, maximum rate of LV pressure fall", "setting": "[3]; vehicle", "result": "−1624 ± 24", "unit": "mmHg/s"}, {"measurement": "LVP/LVV abnormalities (P-V loops)", "setting": "[3]; Pkd2 hearts", "result": "Both CTNDDS but not fenoldopam-alone corrected these abnormalities"}, {"measurement": "arrhythmia (ECG)", "setting": "[3]; Pkd2 hearts, 8-week treatment", "result": "could be corrected with 8-week treatment of CTNDDS but not fenoldopam-alone"}]}
